Data as given in ChEMBL document CHEMBL5335843, “Application of tobramycin benzyl ether as an antibiotic adjuvant capable of sensitizing multidrug-resistant Gram-negative bacteria to rifampicin” (2024).

Experiments:
Pseudomonas aeruginosa [1] = assay: Antibiotic adjuvant activity against multi-drug resistant Pseudomonas aeruginosa clinical isolate PA259 assessed as rifampicin MIC incubated for 18 hrs in presence of Rifampicin by two fold broth microdilution checkerboard assay; type: functional
Acinetobacter baumannii [2] = assay: Antibacterial activity against Acinetobacter baumannii ATCC 17978 assessed as inhibition of bacterial growth incubated for 18 hrs by two fold broth microdilution assay; type: functional
Acinetobacter baumannii [3] = assay: Antibacterial activity against multi-drug resistant Acinetobacter baumannii clinical isolate LAC-4 assessed as inhibition of bacterial growth incubated for 18 hrs by two fold broth microdilution assay; type: functional
Escherichia coli [4] = assay: Antibiotic adjuvant activity against Escherichia coli ATCC 25922 assessed as novobiocin MIC incubated for 18 hrs in presence of novobiocin by two fold broth microdilution checkerboard assay; type: functional
Pseudomonas aeruginosa [5] = assay: Antibiotic adjuvant activity against multi-drug resistant Pseudomonas aeruginosa clinical isolate PA259 assessed as fractional inhibitory concentration index incubated for 18 hrs in presence of minocycline by two fold broth microdilution checkerboard assay; type: functional
Pseudomonas aeruginosa [6] = assay: Antibiotic adjuvant activity against multi-drug resistant Pseudomonas aeruginosa clinical isolate PA101243 assessed as inhibition of bacterial growth incubated for 18 hrs in presence of doxycycline by two fold broth microdilution checkerboard assay; type: functional
Pseudomonas aeruginosa [7] = assay: Antibiotic adjuvant activity against multi-drug resistant Pseudomonas aeruginosa clinical isolate PA264 assessed as fold potentiation incubated for 18 hrs in presence of minocycline by two fold broth microdilution checkerboard assay; type: functional
Escherichia coli [8] = assay: Antibiotic adjuvant activity against multi-drug resistant Escherichia coli clinical isolate 107115 assessed as fractional inhibitory concentration index incubated for 18 hrs in presence of Rifampicin by two fold broth microdilution checkerboard assay; type: functional
Enterococcus faecium [9] = assay: Antibacterial activity against Enterococcus faecium 114278 assessed as inhibition of bacterial growth incubated for 18 hrs by two fold broth microdilution assay; type: functional
Escherichia coli [10] = assay: Antibiotic adjuvant activity against multi-drug resistant Escherichia coli clinical isolate EC94474 assessed as inhibition of bacterial growth incubated for 18 hrs in presence of doxycycline by two fold broth microdilution checkerboard assay; type: functional
Pseudomonas aeruginosa [11] = assay: Antibiotic adjuvant activity against multi-drug resistant Pseudomonas aeruginosa clinical isolate PA264 assessed as fold potentiation incubated for 18 hrs in presence of doxycycline by two fold broth microdilution checkerboard assay; type: functional
Escherichia coli [12] = assay: Antibiotic adjuvant activity against multi-drug resistant Escherichia coli clinical isolate EC107115 assessed as inhibition of bacterial growth incubated for 18 hrs in presence of doxycycline by two fold broth microdilution checkerboard assay; type: functional
Pseudomonas aeruginosa [13] = assay: Antibacterial activity against multi-drug resistant Pseudomonas aeruginosa clinical isolate PA114228 assessed as inhibition of bacterial growth incubated for 18 hrs by two fold broth microdilution assay; type: functional
Acinetobacter baumannii [14] = assay: Antibiotic adjuvant activity against Acinetobacter baumannii ATCC 17978 assessed as fold increase in MIC incubated for 18 hrs in presence of rifampicin and CAMHB Mg2+ media by two fold broth microdilution checkerboard assay; type: functional
Escherichia coli [15] = assay: Antibiotic adjuvant activity against multi-drug resistant Escherichia coli clinical isolate 94474 assessed as rifampicin MIC incubated for 18 hrs in presence of Rifampicin by two fold broth microdilution checkerboard assay; type: functional
Escherichia coli [16] = assay: Antibacterial activity against multi-drug resistant Escherichia coli clinical isolate EC107115 assessed as inhibition of bacterial growth incubated for 18 hrs by two fold broth microdilution assay; type: functional
Escherichia coli [17] = assay: Antibiotic adjuvant activity against Escherichia coli ATCC 25922 assessed as fold potentiation incubated for 18 hrs in presence of novobiocin by two fold broth microdilution checkerboard assay; type: functional
Cell membrane = assay: Induction of outer membrane permeabilization in Escherichia coli ATCC 25922 assessed as increase fluorescence intensity by measuring NPN uptake factor by fluorescence based analysis; type: subcellular
Acinetobacter baumannii [18] = assay: Antibiotic adjuvant activity against Acinetobacter baumannii ATCC 17978 assessed as rifampicin MIC incubated for 18 hrs in presence of Rifampicin by two fold broth microdilution checkerboard assay; type: functional
Acinetobacter baumannii [19] = assay: Antibiotic adjuvant activity against Acinetobacter baumannii ATCC 17978 assessed as fold potentiation incubated for 18 hrs in presence of rifampicin by two fold broth microdilution checkerboard assay relative to FBS; type: functional
Pseudomonas aeruginosa [20] = assay: Antibiotic adjuvant activity against multi-drug resistant Pseudomonas aeruginosa clinical isolate PA262 assessed as fractional inhibitory concentration index incubated for 18 hrs in presence of Rifampicin by two fold broth microdilution checkerboard assay; type: functional
Pseudomonas aeruginosa [21] = assay: Antibiotic adjuvant activity against multi-drug resistant Pseudomonas aeruginosa clinical isolate PA264 assessed as inhibition of bacterial growth incubated for 18 hrs in presence of Rifampicin by two fold broth microdilution checkerboard assay; type: functional
Acinetobacter baumannii [22] = assay: Antibiotic adjuvant activity against Acinetobacter baumannii ATCC 17978 assessed as fold potentiation incubated for 18 hrs in presence of rifampicin and FBS media by two fold broth microdilution checkerboard assay; type: functional
Pseudomonas aeruginosa [23] = assay: Antibiotic adjuvant activity against multi-drug resistant Pseudomonas aeruginosa clinical isolate 101243 assessed as rifampicin MIC incubated for 18 hrs in presence of Rifampicin by two fold broth microdilution checkerboard assay; type: functional
Escherichia coli [24] = assay: Antibacterial activity against Escherichia coli ATCC 25922 assessed as inhibition of bacterial growth incubated for 18 hrs by two fold broth microdilution assay; type: functional
Escherichia coli [25] = assay: Antibiotic adjuvant activity against multi-drug resistant Escherichia coli clinical isolate EC94474 assessed as fractional inhibitory concentration index incubated for 18 hrs in presence of minocycline by two fold broth microdilution checkerboard assay; type: functional
Acinetobacter baumannii [26] = assay: Antibiotic adjuvant activity against Acinetobacter baumannii ATCC 17978 assessed as minocycline MIC incubated for 18 hrs in presence of minocycline by two fold broth microdilution checkerboard assay; type: functional
Pseudomonas aeruginosa [27] = assay: Antibiotic adjuvant activity against multi-drug resistant Pseudomonas aeruginosa clinical isolate PA114228 assessed as fold potentiation incubated for 18 hrs in presence of minocycline by two fold broth microdilution checkerboard assay; type: functional
Pseudomonas aeruginosa [28] = assay: Antibacterial activity against multi-drug resistant Pseudomonas aeruginosa clinical isolate PA262 assessed as inhibition of bacterial growth incubated for 18 hrs by two fold broth microdilution assay; type: functional
Enterococcus faecium [29] = assay: Antibiotic adjuvant activity against Enterococcus faecium 114278 assessed as fractional inhibitory concentration index incubated for 18 hrs in presence of rifampicin by two fold broth microdilution checkerboard assay; type: functional
Pseudomonas aeruginosa [30] = assay: Antibiotic adjuvant activity against multi-drug resistant Pseudomonas aeruginosa clinical isolate PA101243 assessed as inhibition of bacterial growth incubated for 18 hrs in presence of minocycline by two fold broth microdilution checkerboard assay; type: functional
Enterococcus faecium [31] = assay: Antibiotic adjuvant activity against Enterococcus faecium 114278 assessed as inhibition of bacterial growth incubated for 18 hrs in presence of rifampicin by two fold broth microdilution checkerboard assay; type: functional
Escherichia coli [32] = assay: Antibiotic adjuvant activity against multi-drug resistant Escherichia coli clinical isolate 94474 assessed as fold potentiation incubated for 18 hrs in presence of Rifampicin by two fold broth microdilution checkerboard assay; type: functional
Escherichia coli [33] = assay: Antibiotic adjuvant activity against multi-drug resistant Escherichia coli clinical isolate EC94474 assessed as inhibition of bacterial growth incubated for 18 hrs in presence of minocycline by two fold broth microdilution checkerboard assay; type: functional
Pseudomonas aeruginosa [34] = assay: Antibiotic adjuvant activity against multi-drug resistant Pseudomonas aeruginosa clinical isolate PA114228 assessed as fold potentiation incubated for 18 hrs in presence of doxycycline by two fold broth microdilution checkerboard assay; type: functional
Acinetobacter baumannii [35] = assay: Antibiotic adjuvant activity against multi-drug resistant Acinetobacter baumannii clinical isolate 110193 assessed as fractional inhibitory concentration index incubated for 18 hrs in presence of Rifampicin by two fold broth microdilution checkerboard assay; type: functional

Cl.NC[C@H]1O[C@H](O[C@H]2[C@H](OCc3ccccc3)[C@@H](O[C@H]3O[C@H](COCc4ccccc4)[C@@H](OCc4ccccc4)[C@H](N)[C@H]3OCc3ccccc3)[C@H](N)C[C@@H]2N)[C@H](N)C[C@@H]1OCc1ccccc1
MIC (Pseudomonas aeruginosa [1]): 16 µg/mL
MIC (Acinetobacter baumannii [2]): 64 µg/mL
MIC (Acinetobacter baumannii [3]): 16 µg/mL
MIC (Escherichia coli [4]): 0.125 µg/mL
fractional inhibitory concentration index (FICI) (Pseudomonas aeruginosa [5]): 1.063
MIC (Pseudomonas aeruginosa [6]): 8 µg/mL
fold change (FC) (Pseudomonas aeruginosa [7]): 2
fractional inhibitory concentration index (FICI) (Escherichia coli [8]): 0.063
MIC (Enterococcus faecium [9]): 8 µg/mL
MIC (Escherichia coli [10]): 8 µg/mL
fold change (FC) (Pseudomonas aeruginosa [11]): 1
MIC (Escherichia coli [12]): 8 µg/mL
MIC (Pseudomonas aeruginosa [13]): 64 µg/mL
fold change (FC) (Acinetobacter baumannii [14]): >=2
MIC (Escherichia coli [15]): 0.031 µg/mL
MIC (Escherichia coli [16]): 32 µg/mL
fold change (FC) (Escherichia coli [17]): 2048
Activity (Cell membrane): Dose-Dependent Effect
MIC (Acinetobacter baumannii [18]): 0.004 µg/mL
fold change (FC) (Acinetobacter baumannii [19]): 64
fractional inhibitory concentration index (FICI) (Pseudomonas aeruginosa [20]): 1.063
MIC (Pseudomonas aeruginosa [21]): 8 µg/mL
fold change (FC) (Acinetobacter baumannii [22]): 4
MIC (Pseudomonas aeruginosa [23]): 0.004 µg/mL
MIC (Escherichia coli [24]): 32 µg/mL
fractional inhibitory concentration index (FICI) (Escherichia coli [25]): 0.094
MIC (Acinetobacter baumannii [26]): ≤ 4 µg/mL
fold change (FC) (Pseudomonas aeruginosa [27]): 1
MIC (Pseudomonas aeruginosa [28]): 128 µg/mL
fractional inhibitory concentration index (FICI) (Enterococcus faecium [29]): 1.5
MIC (Pseudomonas aeruginosa [30]): 8 µg/mL
MIC (Enterococcus faecium [31]): 4 µg/mL
fold change (FC) (Escherichia coli [32]): 256
MIC (Escherichia coli [33]): 8 µg/mL
fold change (FC) (Pseudomonas aeruginosa [34]): 1
fractional inhibitory concentration index (FICI) (Acinetobacter baumannii [35]): 0.126
